We go through 17 molecules from patent US20240067632A1, “WEE1 Degrading Compounds and Uses Thereof” (Bristol-Myers Squibb Company, priority 2022, published 2024).

Molecules are shown by their SMILES. Read-outs that look alike come from different tables or passages of the source.

One assay has as its system MKN45 cells. Briefly: MKN45 cell proliferation assay (Cell-Titer-Glo, 120 h). Particulars: for EC50: Homo sapiens, MKN-45, 120 h, Cell-Titer-Glo, read-out: MKN45 Cell Prolif. 120 hr (EC50); for MKN45 Cell Prolif. 120 hr (Ymin-Obs): minimal percent of DMSO control observed in the concentrations tested. In kind it is cell-based. The gist of the method:
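Growth inhibition was read as blank-corrected Cell-Titer-Glo luminescence expressed as percent DMSO control after 120 h at 37 C, 400 cells/well. Compounds tested in triplicate as 10-point half-log series from 1 or 10 uM, 0.1% DMSO; four-parameter fit gave EC50, and lowest observed percent control was reported as Ymin-obs.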

The target of the next assay is T1, WEE1 (Homo sapiens, UniProt P30291+Q96SW2).
T1 construct: C-terminal ePL-tagged (DiscoverX, Fremont, CA) full-length WEE1 expression construct; expressed in transfected cells; host or cells: LentiX-HEK293T (Invitrogen), lentiviral transduction; co-expressing GSPT1-GN (G576N, lacking the first 158 amino acids)
Briefly: WEE1-ePL degradation assay (LentiX-WEE1-ePL-GSPT1-ND cells, InCELL Hunter luminescence, 4 h). In kind it is cell-based. Conditions: 293T-LentiX WEE1-ePL cells; for DC50: read-out: 293T-LentiX WEE1-ePL Degradation 4 hr (EC50). The gist of the method:
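HEK293T cells stably expressing C-terminal ePL-tagged full-length WEE1, 2500 cells/well, treated 4 h at 37° C with a 10-point 3-fold series from 1 or 10 uM. Remaining WEE1-ePL read by InCELL Hunter luminescence after 30 min. EC50 came from a four-parameter logistic fit, with Ymax set from DMSO control.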

[1] abbreviates: lower limit of the fit (0 = luciferase inhibitor, Ymax = DMSO control).
Where [2] appears, read: lower limit of the fit (Ymin=0 luciferase inhibitor, Ymax DMSO control).

Take `O=C1CCC(N2Cc3cc(O[C@H]4CCN(Cc5ccc6nc(N7CC(O)C7)ccc6c5)C4)ccc3C2=O)C(=O)N1` (stereo partly drawn) [3-(5-{[(3S)-1-{[2-(3-hydroxyazetidin-1-yl)quinolin-6-yl]methyl}pyrrolidin-3-yl]oxy}-1-oxo-2,3-dihydro-1H-isoindol-2-yl)piperidine-2,6-dione]: the EC50 in the assay on MKN45 cells (growth inhibition) was 26.8 nM. The “MKN45 Cell Prolif. 120 hr (Ymin-Obs)” value in the assay with MKN45 cells was found to be 13.6. The “293T-LentiX WEE1-ePL Degradation 4 hr (Ymin)” value at WEE1 (setting [1]) is recorded as 34. Also, the DC50 at WEE1 was 14.1 nM.

As to `CO[C@H]1CC[C@@H](Nc2ccc3cc(CN4CC[C@H](Oc5ccc6c(c5)CN(C5CCC(=O)NC5=O)C6=O)C4)ccc3n2)CC1` (stereo partly drawn) [3-(1-oxo-5-{[(3S)-1-[(2-{[(1s,4s)-4-methoxycyclohexyl]amino}quinolin-6-yl)methyl]pyrrolidin-3-yl]oxy}-2,3-dihydro-1H-isoindol-2-yl)piperidine-2,6-dione], the EC50 in the assay with MKN45 cells (growth inhibition) was determined as 1.04 nM. The “MKN45 Cell Prolif. 120 hr (Ymin-Obs)” value with MKN45 cells came out at 6.285. In addition, on WEE1 (setting [1]), the “293T-LentiX WEE1-ePL Degradation 4 hr (Ymin)” value worked out at 29.5. Further, the DC50 on WEE1 was 6.38 nM.

With `N#Cc1ccc2cc(CN3CC[C@H](Oc4ccc5c(c4)CN([C@H]4CCC(=O)NC4=O)C5=O)C3)cc(F)c2n1` [6-{[(3S)-3-({2-[(3S)-2,6-dioxopiperidin-3-yl]-1-oxo-2,3-dihydro-1H-isoindol-5-yl}oxy)pyrrolidin-1-yl]methyl}-8-fluoroquinoline-2-carbonitrile], the EC50 with MKN45 cells (growth inhibition) was 2.72 nM. In addition, in the assay with MKN45 cells, the “MKN45 Cell Prolif. 120 hr (Ymin-Obs)” value is recorded as 8.579. On WEE1 (setting [1]), the “293T-LentiX WEE1-ePL Degradation 4 hr (Ymin)” value is listed as 27.19. Besides, the DC50 at WEE1 is 1.71 nM.

As for `C[C@@H]1CN(Cc2cc(F)c3nc(C4CCOCC4)ccc3c2)C[C@H]1Oc1ccc2c(c1)CN([C@H]1CCC(=O)NC1=O)C2=O` [(3S)-3-(5-{[(3S,4R)-1-{[8-fluoro-2-(oxan-4-yl)quinolin-6-yl]methyl}-4-methylpyrrolidin-3-yl]oxy}-1-oxo-2,3-dihydro-1H-isoindol-2-yl)piperidine-2,6-dione], in the assay on MKN45 cells, the EC50 stood at 1.42 nM and the “MKN45 Cell Prolif. 120 hr (Ymin-Obs)” value worked out at 9.05. Besides, the “293T-LentiX WEE1-ePL Degradation 4 hr (Ymin)” value at WEE1 (setting [2]) is 33.52. Also, the DC50 at WEE1 came to 1.05 nM.

As to `O=C1CCC(N2Cc3cc(O[C@@H]4CCN(Cc5cnc6ccccc6c5)C4)ccc3C2=O)C(=O)N1` (stereo in doubt) [rel-3-(1-oxo-5-{[(3R)-1-[(quinolin-3-yl)methyl]pyrrolidin-3-yl]oxy}-2,3-dihydro-1H-isoindol-2-yl)piperidine-2,6-dione], the EC50 in the assay on MKN45 cells (growth inhibition) came out at 57 nM. For the same molecule, the “MKN45 Cell Prolif. 120 hr (Ymin-Obs)” value in the assay with MKN45 cells is reported as 11.39. The “293T-LentiX WEE1-ePL Degradation 4 hr (Ymin)” value at WEE1 (setting [1]) is 26.82. For the same molecule, the DC50 on WEE1 was 6.57 nM.

As to `O=C1CCC(N2Cc3cc(O[C@H]4CCN(Cc5ccc6nc(N7C[C@H]8COC[C@H]8C7)ccc6c5)C4)ccc3C2=O)C(=O)N1` (stereo partly drawn) [3-(5-{[(3S)-1-({2-[(3aR,6aS)-hexahydro-1H-furo[3,4-c]pyrrol-5-yl]quinolin-6-yl}methyl)pyrrolidin-3-yl]oxy}-1-oxo-2,3-dihydro-1H-isoindol-2-yl)piperidine-2,6-dione], the EC50 in the assay on MKN45 cells (growth inhibition) stood at 6.4 nM. For the same molecule, the “MKN45 Cell Prolif. 120 hr (Ymin-Obs)” value in the assay on MKN45 cells was determined as 14.73. Also, the “293T-LentiX WEE1-ePL Degradation 4 hr (Ymin)” value at WEE1 (setting [1]) was determined as 39. At WEE1, the DC50 worked out at 3.61 nM.

Turning to `CO[C@@H]1CCC[C@H](c2ccc3cc(CN4CC[C@H](Oc5ccc6c(c5)CN(C5CCC(=O)NC5=O)C6=O)C4)ccc3n2)C1` (stereo partly drawn) [3-(5-{[(3S)-1-({2-[(1S,3R)-3-methoxycyclohexyl]quinolin-6-yl}methyl)pyrrolidin-3-yl]oxy}-1-oxo-2,3-dihydro-1H-isoindol-2-yl)piperidine-2,6-dione], in the assay with MKN45 cells (growth inhibition), the EC50 came to 16.5 nM. The “MKN45 Cell Prolif. 120 hr (Ymin-Obs)” value with MKN45 cells came out at 9.143. In addition, the “293T-LentiX WEE1-ePL Degradation 4 hr (Ymin)” value on WEE1 (setting [1]) is 32. Also, the DC50 at WEE1 amounted to 28.7 nM.

For the molecule `O=C1CCC(N2Cc3cc(O[C@H]4CCN(Cc5cncc6c5CCCO6)C4)ccc3C2=O)C(=O)N1` (stereo partly drawn) [3-(1-oxo-5-{[(3S)-1-({2H,3H,4H-pyrano[2,3-c]pyridin-5-yl}methyl)pyrrolidin-3-yl]oxy}-2,3-dihydro-1H-isoindol-2-yl)piperidine-2,6-dione], in the assay with MKN45 cells (growth inhibition), the EC50 was determined as 69.9 nM. Besides, the “MKN45 Cell Prolif. 120 hr (Ymin-Obs)” value in the assay on MKN45 cells is listed as 11.03. In addition, the “293T-LentiX WEE1-ePL Degradation 4 hr (Ymin)” value on WEE1 (setting [1]) came to 29.38. Also, at WEE1, the DC50 stood at 24.6 nM.

As for `C#Cc1ccc2cc(CN3CC[C@H](Oc4ccc5c(c4)CN(C4CCC(=O)NC4=O)C5=O)C3)ccc2n1` (stereo partly drawn) [3-(5-{[(3S)-1-[(2-ethynylquinolin-6-yl)methyl]pyrrolidin-3-yl]oxy}-1-oxo-2,3-dihydro-1H-isoindol-2-yl)piperidine-2,6-dione], the EC50 with MKN45 cells (growth inhibition) turned out to be 260 nM. The “MKN45 Cell Prolif. 120 hr (Ymin-Obs)” value in the assay with MKN45 cells came out at 6.523. For the same molecule, the “293T-LentiX WEE1-ePL Degradation 4 hr (Ymin)” value at WEE1 (setting [1]) came to 32. Besides, the DC50 on WEE1 came out at 3.14 nM.

Turning to `O=C1CCC(N2Cc3cc(O[C@H]4CCN(Cc5ccc6nc(CC(F)(F)F)ccc6c5)C4)ccc3C2=O)C(=O)N1` (stereo partly drawn) [3-(1-oxo-5-{[(3S)-1-{[2-(2,2,2-trifluoroethyl)quinolin-6-yl]methyl}pyrrolidin-3-yl]oxy}-2,3-dihydro-1H-isoindol-2-yl)piperidine-2,6-dione], the EC50 in the assay with MKN45 cells (growth inhibition) was 20.8 nM. Moreover, in the assay with MKN45 cells, the “MKN45 Cell Prolif. 120 hr (Ymin-Obs)” value is 13.32. Further, the “293T-LentiX WEE1-ePL Degradation 4 hr (Ymin)” value on WEE1 (setting [1]) stood at 33.67. Also, the DC50 at WEE1 is 5.4 nM.

For `O=C1CC[C@H](N2Cc3cc(O[C@H]4CCN(Cc5cc(C6CC6)c6nc(N7CCOCC7)ncc6c5)C4)ccc3C2=O)C(=O)N1` [(3S)-3-(5-{[(3S)-1-{[8-cyclopropyl-2-(morpholin-4-yl)quinazolin-6-yl]methyl}pyrrolidin-3-yl]oxy}-1-oxo-2,3-dihydro-1H-isoindol-2-yl)piperidine-2,6-dione], in the assay with MKN45 cells, the EC50 amounted to 2.28 nM and the “MKN45 Cell Prolif. 120 hr (Ymin-Obs)” value worked out at 2.136. In addition, the “293T-LentiX WEE1-ePL Degradation 4 hr (Ymin)” value on WEE1 (setting [2]) was 42.1. In addition, the DC50 at WEE1 is 2.5 nM.

`COC[C@@H]1CCCC[C@H]1c1ccc2cc(CN3CC[C@H](Oc4ccc5c(c4)CN(C4CCC(=O)NC4=O)C5=O)C3)ccc2n1` (stereo partly drawn) [3-(5-{[(3S)-1-({2-[(1R,2R)-2-(methoxymethyl)cyclohexyl]quinolin-6-yl}methyl)pyrrolidin-3-yl]oxy}-1-oxo-2,3-dihydro-1H-isoindol-2-yl)piperidine-2,6-dione]: in the assay on MKN45 cells, the EC50 worked out at 2.53 nM and the “MKN45 Cell Prolif. 120 hr (Ymin-Obs)” value was 12.91. Moreover, the “293T-LentiX WEE1-ePL Degradation 4 hr (Ymin)” value on WEE1 (setting [2]) is given as 20.92. The DC50 at WEE1 is 3.65 nM.

As to `N#Cc1ccc2cc(CN3CC[C@H](Oc4ccc5c(c4)CN([C@H]4CCC(=O)NC4=O)C5=O)C3)ccc2n1` [6-{[(3S)-3-({2-[(3S)-2,6-dioxopiperidin-3-yl]-1-oxo-2,3-dihydro-1H-isoindol-5-yl}oxy)pyrrolidin-1-yl]methyl}quinoline-2-carbonitrile], in the assay with MKN45 cells, the EC50 was found to be 6.01 nM and the “MKN45 Cell Prolif. 120 hr (Ymin-Obs)” value was 14.78. The “293T-LentiX WEE1-ePL Degradation 4 hr (Ymin)” value at WEE1 (setting [2]) is 28.06. Further, the DC50 on WEE1 was 2.46 nM.

On to `O=C1CCC(N2Cc3cc(O[C@H]4CCN(Cc5ccc6nc(N7CCOCC7=O)ccc6c5)C4)ccc3C2=O)C(=O)N1` (stereo partly drawn) [3-(1-oxo-5-{[(3S)-1-{[2-(3-oxomorpholin-4-yl)quinolin-6-yl]methyl}pyrrolidin-3-yl]oxy}-2,3-dihydro-1H-isoindol-2-yl)piperidine-2,6-dione], for which the EC50 in the assay on MKN45 cells (growth inhibition) worked out at 2.91 nM. Further, the “MKN45 Cell Prolif. 120 hr (Ymin-Obs)” value in the assay with MKN45 cells is 6.88. For the same molecule, on WEE1 (setting [1]), the “293T-LentiX WEE1-ePL Degradation 4 hr (Ymin)” value worked out at 32. Besides, on WEE1, the DC50 was 2.43 nM.

`O=C1CCC(N2Cc3cc(O[C@H]4CCN(Cc5ccc6ccccc6n5)C4)ccc3C2=O)C(=O)N1` (stereo partly drawn) [3-(1-oxo-5-{[(3S)-1-[(quinolin-2-yl)methyl]pyrrolidin-3-yl]oxy}-2,3-dihydro-1H-isoindol-2-yl)piperidine-2,6-dione]: the EC50 with MKN45 cells (growth inhibition) was > 10000 nM. In the assay on MKN45 cells, the “MKN45 Cell Prolif. 120 hr (Ymin-Obs)” value came to 81.45. Further, at WEE1 (setting [1]), the “293T-LentiX WEE1-ePL Degradation 4 hr (Ymin)” value is listed as 58. Further, on WEE1, the DC50 was 25.6 nM.

For the molecule `C[C@@H]1CN(Cc2ccc3nc([C@H]4CCOC(C)(C)C4)ccc3c2)C[C@H]1Oc1ccc2c(c1)CN(C1CCC(=O)NC1=O)C2=O` (stereo partly drawn) [3-(5-{[(3S,4R)-1-({2-[(4S)-2,2-dimethyloxan-4-yl]quinolin-6-yl}methyl)-4-methylpyrrolidin-3-yl]oxy}-1-oxo-2,3-dihydro-1H-isoindol-2-yl)piperidine-2,6-dione], the EC50 in the assay on MKN45 cells (growth inhibition) came to 0.918 nM. Also, the “MKN45 Cell Prolif. 120 hr (Ymin-Obs)” value in the assay on MKN45 cells is on record as 8.183. For the same molecule, the “293T-LentiX WEE1-ePL Degradation 4 hr (Ymin)” value at WEE1 (setting [1]) is 24.37. The DC50 on WEE1 was 1.94 nM.

As to `O=C1CC[C@H](N2Cc3cc(O[C@H]4CCN(Cc5cc(F)c6nc([C@@H]7CCOC7)ccc6c5)C4)ccc3C2=O)C(=O)N1` [(3S)-3-(5-{[(3S)-1-({8-fluoro-2-[(3S)-oxolan-3-yl]quinolin-6-yl}methyl)pyrrolidin-3-yl]oxy}-1-oxo-2,3-dihydro-1H-isoindol-2-yl)piperidine-2,6-dione], in the assay on MKN45 cells, the EC50 worked out at 1.45 nM and the “MKN45 Cell Prolif. 120 hr (Ymin-Obs)” value is recorded as 9.273. Moreover, the “293T-LentiX WEE1-ePL Degradation 4 hr (Ymin)” value at WEE1 (setting [2]) is given as 34.19. Further, the DC50 at WEE1 is 1.73 nM.
